Assay [1] relates to PA1 (ECACC, 90013101) cells. The experiment in a line: Cell viability assay (Cell Titre Glo, 72 hours) in PA1 cells. To be noted: Homo sapiens, PA-1. Type of assay: cell-based. As to the method:
(§1) Example 31: Cell Viability Assays
(§2) Phthalazinone based modulators as described herein were dispensed into 384 well CulturPlates™ (PerkinElmer) using Echo 555 acoustic dispensing in 10-point dose response curves at a final top concentration of 30 μM following a 1 in 3 dilution series. A2058 (ATCC, CRL-11147) or PA1 (ECACC, 90013101) cells were added directly to a compound at a density of 5000 cells per well in a final volume of 50 μL and incubated for 72 hours at 37° C., 5% CO2. Viability was assessed using Cell Titre Glo® (Promega) according to the manufacturer's instructions (25 μL per well) and IC50 curves were generated for each inhibitor using IDBS ActivityBase data analysis software.

Assay [2] has as its system A2058 (ATCC, CRL-11147) cells. Nature of the assay: Cell viability assay (Cell Titre Glo, 72 hours) in A2058 cells. Type of assay: cell-based. The following applies: Homo sapiens. As to the method:
as §1, §2

Molecules are shown by their SMILES.

As usually defined, the IC50 is the midpoint of a concentration-inhibition curve.

Regarding `Cc1ccc(C#N)cc1N1CCN(C(=O)c2nn(C)c(=O)c3ccccc23)CC1` [Compound 67], the IC50 in assay [1] and in assay [2] was at most 1 µM in each case.

For `CCn1nc(C(=O)N2CCN(c3ccc(C(F)(F)F)cc3C)CC2)c2ccccc2c1=O` [Compound 104], the IC50 in assay [1] and in assay [2] was 1 to 10 µM in each case.

Turning to `CCn1nc(C(=O)N2CCN(c3cccc(F)c3OC)CC2)c2ccccc2c1=O` [Compound 138], the IC50 in assay [1] and in assay [2] was at most 1 µM each time.

Consider `Cn1nc(C(=O)N2CCN(c3ccc(F)cc3C3CC3)CC2)c2ccccc2c1=O` [Compound 60], for which the IC50 in assay [1] and in assay [2] was at most 1 µM throughout.

With `Cn1nc(C(=O)N2CCN(c3ccncc3C3CC3)CC2)c2ccccc2c1=O` [Compound 71], the IC50 in assay [1] and in assay [2] was at most 1 µM each time.

With `Cn1nc(C(=O)N2CCN(c3cc(F)cc(C#N)c3)CC2)c2cnccc2c1=O` [Compound 220], the IC50 in assay [1] and in assay [2] was 1 to 10 µM in each case.

Take `CCc1cncc(N2CCN(C(=O)c3nn(C)c(=O)c4ccc(F)cc34)CC2)c1` [Compound 210]: the figures for the IC50 in assay [1] and in assay [2] were at most 1 µM and 1 to 10 µM, respectively.

On to `Cn1nc(C(=O)N2CCN(c3cccc4c3OC(F)(F)O4)CC2)c2ccccc2c1=O` [Compound 80], for which the IC50 in assay [1] and in assay [2] was at most 1 µM throughout.

Regarding `CCn1nc(C(=O)N2CCN(c3ncccc3C3CC3)CC2)c2ccccc2c1=O` [Compound 108], the IC50 in assay [1] and in assay [2] was at most 1 µM throughout.

Take `CCn1nc(C(=O)N2CCN(c3cccc(C(F)(F)F)c3OC)CC2)c2ccccc2c1=O` [Compound 137]: the IC50 in assay [1] is 10 to 20 µM; in assay [2], above 20 µM.

For the compound `COc1ccncc1N1CCN(C(=O)c2nn(C)c(=O)c3ccccc23)CC1` [Compound 37], the IC50 in assay [1] and in assay [2] was at most 1 µM in each case.

With `Cn1nc(C(=O)N2CCN(c3nccc4sccc34)CC2)c2ccccc2c1=O` [Compound 194], the IC50 lay within 1 to 10 µM in assay [1] and 10 to 20 µM in assay [2].

Turning to `CCn1nc(C(=O)N2CCN(c3ccc(F)c4c3OCC4)CC2)c2ccccc2c1=O` [Compound 186, 2-ethyl-4-(4-(4-fluoro-2,3-dihydrobenzofuran-7-yl)piperazine-1-carbonyl)phthalazin-1(2H)-one], the IC50 in assay [1] and in assay [2] was at most 1 µM in each case.

As to `CCn1nc(C(=O)N2CCN(c3ncc(C)cc3F)CC2)c2ccccc2c1=O` [Compound 139], the IC50 in assay [1] and in assay [2] was above 20 µM each time.

On to `Cc1cc(N2CCN(C(=O)c3nn(C)c(=O)c4ccccc34)CC2)ccc1F` [Compound 55], for which the IC50 was 10 to 20 µM in assay [1] and above 20 µM in assay [2].

As to `Cn1ccc(N2CCN(C(=O)c3nn(C)c(=O)c4ccccc34)CC2)n1` [Compound 11], the IC50 in assay [1] and in assay [2] was above 20 µM throughout.

Take `CCn1nc(C(=O)N2CCN(c3cccc4c3OC(F)(F)O4)CC2)c2ccccc2c1=O` [Compound 124]: the IC50 in assay [1] and in assay [2] was at most 1 µM each time.

`Cn1nc(C(=O)N2CCN(c3nnccc3C3CC3)CC2)c2ccccc2c1=O` [Compound 185, 4-[4-(4-cyclopropylpyridazin-3-yl)piperazine-1-carbonyl]-2-methyl-phthalazin-1-one]: the IC50 in assay [1] and in assay [2] was 1 to 10 µM in each case.

Regarding `CCn1nc(C(=O)N2CCN(c3ccccc3)CC2)c2ccccc2c1=O` [Compound 3, 2-ethyl-4-(4-phenylpiperazine-1-carbonyl)phthalazin-1-one], the results for the IC50 in assay [1] and in assay [2] were at most 1 µM and 1 to 10 µM, respectively.

Consider `Cn1nc(C(=O)N2CCN(c3cncc(C4CC4)c3)CC2)c2cc(F)ccc2c1=O` [Compound 159], for which the IC50 in assay [1] and in assay [2] was at most 1 µM in each case.

Take `COc1cc(C#N)cc(N2CCN(C(=O)c3nn(C)c(=O)c4ccc(F)cc34)CC2)c1` [Compound 213]: the IC50 in assay [1] and in assay [2] was at most 1 µM each time.

`Cn1nc(C(=O)N2CCN(c3cccc(S(C)(=O)=O)c3)CC2)c2ccccc2c1=O` [Compound 69]: the IC50 in assay [1] and in assay [2] was 1 to 10 µM in each case.

Consider `COc1cc(N2CCN(C(=O)c3nn(C)c(=O)c4ccc(F)cc34)CC2)ccn1` [Compound 163], for which the IC50 in assay [1] and in assay [2] was above 20 µM in each case.

With `Cn1nc(C(=O)N2CCN(c3ccnc4c3OCC4)CC2)c2ccccc2c1=O` [Compound 189], the half-maximal inhibitory concentration (IC50) in assay [1] and in assay [2] was at most 1 µM each time.

As for `Cn1nc(C(=O)N2CCN(c3cncc(C(F)F)c3)CC2)c2ccccc2c1=O` [Compound 63], the IC50 in assay [1] and in assay [2] was above 20 µM each time.

With `CCn1nc(C(=O)N2CCN(c3cccc(C#N)c3)CC2)c2cc(F)ccc2c1=O` [Compound 240], the IC50 in assay [1] and in assay [2] was at most 1 µM throughout.

For the compound `COc1ccncc1N1CCN(C(=O)c2nn(C)c(=O)c3ccc(Cl)cc23)CC1` [Compound 246, 6-chloro-4-(4-(4-methoxypyridin-3-yl)piperazine-1-carbonyl)-2-methylphthalazin-1(2H)-one], the IC50 in assay [1] was at most 1 µM; in assay [2], 1 to 10 µM.

Consider `CCn1nc(C(=O)N2CCN(c3cccnc3OC)CC2)c2ccccc2c1=O` [Compound 143], for which the IC50 in assay [1] and in assay [2] was at most 1 µM each time.

On to `CCn1nc(C(=O)N2CCN(c3cc(C)ccn3)CC2)c2ccccc2c1=O` [Compound 110], for which the IC50 in assay [1] and in assay [2] was 1 to 10 µM throughout.

In the case of `CCn1nc(C(=O)N2CCN(c3ccccc3C(C)(F)F)CC2)c2ccccc2c1=O` [Compound 131], the IC50 in assay [1] and in assay [2] was 1 to 10 µM each time.

For `CCn1nc(C(=O)N2CCN(c3cncc(C)c3)CC2)c2cc(F)ccc2c1=O` [Compound 238], the IC50 in assay [1] and in assay [2] was at most 1 µM in each case.

With `Cn1nc(C(=O)N2CCN(c3cc(F)cc(Cl)c3)CC2)c2ccccc2c1=O` [Compound 45], the IC50 in assay [1] and in assay [2] was at most 1 µM each time.

Regarding `CCn1nc(C(=O)N2CCN(c3cccc(OC)c3F)CC2)c2ccccc2c1=O` [Compound 149], the IC50 in assay [1] lay within 1 to 10 µM; in assay [2], 10 to 20 µM.

Regarding `CCn1nc(C(=O)N2CCN(c3ccc(F)c(OC)c3)CC2)c2ccccc2c1=O` [Compound 150], the IC50 in assay [1] and in assay [2] was at most 1 µM in each case.

Turning to `Cc1cc(C#N)cc(N2CCN(C(=O)c3nn(C)c(=O)c4ccncc34)CC2)c1` [Compound 214], the IC50 is at most 1 µM in assay [1] and 1 to 10 µM in assay [2].

With `Cn1nc(C(=O)N2CCN(c3cc(Cl)cc(C#N)c3)CC2)c2cnccc2c1=O` [Compound 223], the IC50 in assay [1] was at most 1 µM; in assay [2], 1 to 10 µM.

For the compound `CCn1nc(C(=O)N2CCN(c3ccc(OC)c(F)c3)CC2)c2ccccc2c1=O` [Compound 141], the IC50 in assay [1] and in assay [2] was above 20 µM in each case.

Turning to `COc1cc(F)ccc1N1CCN(C(=O)c2nn(C)c(=O)c3ccncc23)CC1` [Compound 174], the IC50 in assay [1] lay within 1 to 10 µM; in assay [2], 10 to 20 µM.

As to `CCc1ccncc1N1CCN(C(=O)c2nn(C)c(=O)c3ccccc23)CC1` [Compound 66], the half-inhibitory concentration (IC50) in assay [1] was at most 1 µM; in assay [2], 1 to 10 µM.

The record behind these values is patent publication US12465603B2, “Phthalazinone based modulators for the treatment of disease” (Soley Therapeutics, Inc., priority 2022, dated 2025).
